Experimental data published in the METLIN SMRT retention time set (Domingo-Almenara et al. 2019).

Experiment: gradient 5% acetonitrile 3 min, to 50% in 2 min, to 85% in 15 min, held 3 min, 100 µL/min
Settings: column: Zorbax Extend-C18 2.1 x 50 mm; eluents: water / acetonitrile, 0.1% formic acid
How it was run: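 Values are retention times taken from adduct peaks that software picked and an analyst inspected. The pure standards were run as mixtures of ~100 molecules on HPLC linked to a quadrupole time-of-flight mass spectrometer, in positive and negative ionization mode. A Zorbax Extend-C18 column (2.1 × 50 mm, 1.8 μm) was used at 100 μL/min with water and acetonitrile, each including 0.1% formic acid.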

| SMILES | RP-LC retention time [s] |
| --- | --- |
| Cc1ccc(C(=O)N2CCn3c(nnc3C(C)C)C2)s1 | 625 |
| CNC(=O)Nc1ccc(S(N)(=O)=O)cc1 | 604 |
| Cc1ccc(CNC(=O)Cn2nc3n(c2=O)CCCCC3)cc1 | 675 |
| CCOC(=O)c1ccccc1NC(=O)N(CC)Cc1cc(=O)[nH]c2ccccc12 | 907 |
| COc1cc(NC(=O)c2csc(-c3ccc(C)n3C)n2)cc(OC)c1 | 1130 |
| O=C(c1cncc(Br)c1)N1CCN(c2ccc(-c3cccs3)nn2)CC1 | 651 |
| O=C(Cn1nc(N2CCCCCC2)c2ccccc2c1=O)Nc1ccccc1 | 1050 |
| NP(=O)(Oc1c2occc2cc2ccc(=O)oc12)N(CCCl)CCCl (configuration not stated) | 738 |
| Cc1noc(C)c1S(=O)(=O)Nc1cc2c3c(c1)CC(=O)N3CCC2 | 672 |
| CCOc1ccc(-c2[nH]ncc2CNS(=O)(=O)Cc2ccc(C)cc2)cc1 | 853 |
| CC(C)N1C(=O)C(C)(C(=O)NCc2ccc3c(c2)OCO3)Oc2cccnc21 (configuration not stated) | 894 |
| CC(C)Oc1ccc(CN2C[C@@H]3C(=O)N(CCCN4CCCC4=O)C(=O)[C@@H]3C2)cc1 | 581 |
| Cc1cccc(N2CCN(C(=O)CC3COc4ccccc4NC3=O)CC2)c1C (configuration not stated) | 861 |
| Cc1ccc(C(=O)N2C[C@@H](F)C[C@H]2C(=O)N2CCCCC2)c(C)c1 | 740 |
| Cc1ccccc1OCC(=O)NCCN1CCN(S(C)(=O)=O)CC1 | 558 |
| COc1ccc(Cl)cc1NS(=O)(=O)c1cc2c(s1)CCN(C(=O)C1CCC1)C2 | 973 |
| OC(c1ccccc1)(c1ccccc1)c1nccn1-c1ccccc1 | 754 |
| COC(=O)CSC1=C(C#N)C(c2ccsc2)CC(=O)N1 (configuration not stated) | 707 |
| CCOc1ccc(CNC(=O)c2cn3c(n2)COCC3)cc1 | 614 |
| CCOc1ccc(NC(=O)Cn2nc(N3CCSCC3)c3ccccc3c2=O)cc1 | 929 |
| CCN1CCN(CCCNC(=O)C2CCN(Cc3cn(C)c4ccc(Cl)cc34)CC2)CC1 | 564 |
| COCCN(Cc1cccs1)C(=O)c1nnn(-c2ccccc2)c1-c1ccccn1 | 824 |
| O=C(C1CCCN(c2ncnc3c2nc2n3CCCCC2)C1)N1CCC(N2CCCCC2)CC1 (configuration not stated) | 590 |
| CC(C)n1c(=O)sc2cc(S(=O)(=O)N3CCC(C(=O)Nc4ccc(F)c(F)c4)CC3)ccc21 | 1020 |
| O=C(NCc1cccc(Cl)c1)c1c(O)c2cccnc2n(-c2cccc(F)c2)c1=O | 1240 |
| Cc1cccc(N2CCN(C(=O)c3ccc(CN4CCN(C(C)C)C(=O)C4=O)cc3)CC2)c1 | 759 |

| SMILES | RP-LC retention time [s] |
| --- | --- |
| NC(=O)COC1CCC12CCN(C(=O)C1CCCCCC1)CC2 (configuration not stated) | 740 |
| CCC(=O)N1CCc2cn(C)c3cccc(c23)C1 | 768 |
| Cc1cnc(-n2nnc(C(=O)N3CCN(C(=O)c4ccco4)CC3)c2C)s1 | 687 |
| O=S(=O)(c1cccc2nsnc12)N1CCCn2nc(-c3ccncc3)cc2C1 | 591 |
| CNC(=O)C1CCCN(C(=O)Nc2ccc(NC(=O)Nc3ccccc3)cc2)C1 (configuration not stated) | 663 |
| Cc1nc(C(C)C)ncc1C(=O)Nc1ccc(Br)cc1F | 907 |
| COc1ccc(C(=O)N2C[C@@H]3C[C@H](NC(=O)c4cccs4)[C@H]2C3)c(C)c1 | 628 |
| CCOC(=O)N1CCc2c(sc(NC(=O)c3cc(C)on3)c2C(=O)OC)C1 | 949 |
| CC(=O)N1CCc2cc(-c3ccc(C(=O)NCCN4CCCCC4)cc3)ccc21 | 616 |
| COc1ccc(CNC(=O)c2cn(C)nc2S(=O)(=O)N2CCC(C)CC2)cc1 | 904 |
| CNC(=O)C1CCCN(c2nc3ncn(CC(=O)Nc4cccc(Cl)c4)c(=O)c3s2)C1 (configuration not stated) | 672 |
| CCCN1C(=O)c2cc(S(=O)(=O)N3CCCCC3CC)ccc2Oc2cccnc21 (configuration not stated) | 1260 |
| O=C(CN1CCCC1=O)NCc1ccccc1C(F)(F)F | 680 |
| Cc1ccc(C)c(-c2cc3c4nn(CC(=O)NCc5ccco5)c(=O)n4ccn3n2)c1 | 883 |
| COc1ccc(Cl)c2c(=O)c3c([nH]c12)CCN(CC(=O)Nc1c(C)cccc1C)C3 | 621 |
| Cc1cc(Cl)ccc1NC(=O)Cn1cccc1-c1nnc(C2CCC2)o1 | 1040 |
| Cn1cnc(S(=O)(=O)N2CCCC(c3nnnn3-c3ccccc3)C2)c1 (configuration not stated) | 690 |
| CC(C)Cc1nc(N2CCN(C(=O)c3ccco3)CC2)c(C#N)c2c1COC(C)(C)C2 | 1180 |
| CCNC(=O)C1CCN(c2nc3ncn(CC(=O)Nc4ccc(C)cc4C)c(=O)c3s2)CC1 | 675 |
| O=C([C@@H]1C[C@H](F)CN1S(=O)(=O)c1ccc(Cl)s1)N1CCc2ccccc2C1 | 955 |
| CC(NC(=O)c1sc2ncccc2c1-n1cccc1)c1ccc2c(c1)OCCO2 (configuration not stated) | 1020 |
| Cc1ccc2[nH]cc(CCN3CC(C(=O)NCCc4ccc(F)cc4)CC3=O)c2c1 (configuration not stated) | 821 |
| O=C(NC1CCCCCC1)c1cn(-c2ccc(-c3nc(C4CC4)no3)cn2)cn1 | 1010 |
| COc1cc2ncc(S(=O)(=O)c3ccc(C)c(C)c3)c(N3CCN(C)CC3)c2cc1OC | 629 |
| CCCCN(C)C(=O)Cn1nc(C)c2c(C)n(-c3ccccc3)nc2c1=O | 787 |
| COc1cccc2c1ccn2CCNC(=O)C1CC(=O)N(c2n[nH]c3ccccc23)C1 (configuration not stated) | 722 |

More lines, now with the values ahead:

| RP-LC retention time [s] | SMILES |
| --- | --- |
| 1190 | COc1ccc(Cn2c(=O)c3sccc3n(Cc3nc(-c4ccc(F)c(Cl)c4)no3)c2=O)cc1 |
| 897 | Cc1oc(-c2ccc(NC(=O)CCc3ccccc3)cc2)nc1Cn1cccn1 |
| 974 | Fc1cccc(-c2noc(Cc3nnc(-c4ccccc4)o3)n2)c1 |
| 759 | COc1ccccc1-c1nc(C2CCN(C(=O)c3n[nH]c4c3CCCC4)CC2)no1 |
| 900 | Cc1noc(-c2ccc(OC3CN(C(=O)c4sccc4C)C3)cc2)n1 |
| 764 | Cc1ccc(CNC(=O)Cn2c(C)nc3onc(C)c3c2=O)cc1 |
| 1040 | CCc1ccc(S(=O)(=O)N2CCc3c(c(-c4nnc(-c5ccccc5F)o4)nn3C)C2)cc1 |
| 1420 | CCCN(C(=O)Cc1ccc(OC)cc1)c1nc(-c2ccccc2)cs1 |
| 1350 | COc1ccccc1N1CCN(c2ccc(-c3nc(-c4ccccc4)no3)cn2)CC1 |
| 821 | O=C(NCc1ccccn1)c1scc(-c2ccc(F)cc2)c1-n1cccc1 |
| 994 | Cc1nc(CC(=O)Nc2nc(-c3ccc(Br)cc3)c(C)s2)cs1 |
| 710 | Oc1cccc(-c2nc3cnccn3c2Nc2ccccc2)c1 |
| 848 | CCn1c(CCC(=O)NCc2ccc(F)cc2)nc2c(C)cccc2c1=O |
| 1140 | CCc1nc2cc(-c3noc(-c4ccccc4F)n3)ccc2o1 |
| 908 | O=C(Cn1cccc1-c1nnc(C2CC2)o1)Nc1ccc(F)c(Cl)c1 |
| 689 | O=C(c1ccncc1)N1CCCCC1c1nc(-c2ccncc2)no1 (configuration not stated) |
| 984 | COc1cccc(-c2ccc(=O)n(Cc3nc(-c4ccc(F)cc4)no3)n2)c1 |
| 946 | O=S(=O)(c1ccc(Cl)c(-c2nnc(-c3ccccc3)o2)c1)N1CCOCC1 |

| RP-LC retention time [s] | SMILES |
| --- | --- |
| 681 | COc1ccc(N2CCN(c3nc4ccccc4cc3-c3noc(C)n3)CC2)cc1 |
| 882 | O=C(Cn1cccc1-c1nnc(-c2ccccc2)o1)NCc1ccccc1 |
| 1370 | Cc1ccc2nc(N3CCN(C(=O)C(C)(C)C)CC3)c(-c3noc(-c4ccccc4)n3)cc2c1 |
| 794 | Cc1ccnc(NC(=O)C2CCN(S(=O)(=O)c3ccc(-c4noc(C5CC5)n4)cc3)CC2)c1 |
| 846 | COC(=O)c1ccc(-c2csc(NC(=O)c3cc(C)no3)n2)cc1 |
| 785 | COc1cccc(CN2CCc3nc(N4CCN(c5ccccc5F)CC4)ncc3C2)c1 |
| 744 | O=C(COc1ccc(Cl)cc1)Nc1c(-c2ccc(F)cc2)nc2ccccn12 |
| 1160 | O=S(=O)(c1ccc2nc(N3CCN(c4ccccc4F)CC3)ccc2c1)N1CCCCC1 |
| 745 | Cn1cnc(S(=O)(=O)N2CC(c3nc(CCOCc4ccccc4)no3)C2)c1 |
| 987 | Cn1nc(-c2nnc(-c3ccc(F)cc3)o2)c2c1CCN(S(=O)(=O)c1cccc(Cl)c1)C2 |
| 702 | COc1ccc(NC(=O)Nc2c(-c3cccc(C)c3)nc3ccccn23)cc1Cl |
| 1110 | COc1ccc(N2CCN(c3cc(SCC(=O)Nc4ccc(C)cc4F)ncn3)CC2)cc1 |
| 604 | Cc1nc2ncc(-c3ccnc(N4CCN(Cc5ccccc5)CC4)n3)c(C)n2n1 |
| 923 | Cc1ccc(C)c(-c2cc3c(=O)n(Cc4noc(-c5ccccn5)n4)ccn3n2)c1 |
| 828 | Cc1nn(Cc2nc(-c3ccc(NC(=O)c4ccco4)cc3)oc2C)c(C)c1C |
| 1250 | CCOc1cc(-c2noc(-c3nnn4c3COC(c3ccc(C)cc3C)C4)n2)ccc1OC (configuration not stated) |
| 832 | COc1ccc(-c2nc3ccc(Cl)cn3c2Nc2ccccc2C)cc1 |
